Source: article PMC8981555 (RSC Advances, 2022)
Read-outs that look alike come from different tables or passages of the source.

Experiments:
jack bean urease [1] = target: T1, jack bean urease (Canavalia ensiformis, UniProt P07374); assay: Urease inhibition assay; format: biochemical; details: for % inhibition: value in parentheses after IC50, concentration not given
jack bean urease [2] = target: T1, jack bean urease; assay: Enzyme kinetic studies; format: biochemical; details: for Mode of inhibition: Lineweaver–Burk plots
[3] = at 20 μM concentration of the inhibitor

T1 sequence (P07374 whole entry, looked up): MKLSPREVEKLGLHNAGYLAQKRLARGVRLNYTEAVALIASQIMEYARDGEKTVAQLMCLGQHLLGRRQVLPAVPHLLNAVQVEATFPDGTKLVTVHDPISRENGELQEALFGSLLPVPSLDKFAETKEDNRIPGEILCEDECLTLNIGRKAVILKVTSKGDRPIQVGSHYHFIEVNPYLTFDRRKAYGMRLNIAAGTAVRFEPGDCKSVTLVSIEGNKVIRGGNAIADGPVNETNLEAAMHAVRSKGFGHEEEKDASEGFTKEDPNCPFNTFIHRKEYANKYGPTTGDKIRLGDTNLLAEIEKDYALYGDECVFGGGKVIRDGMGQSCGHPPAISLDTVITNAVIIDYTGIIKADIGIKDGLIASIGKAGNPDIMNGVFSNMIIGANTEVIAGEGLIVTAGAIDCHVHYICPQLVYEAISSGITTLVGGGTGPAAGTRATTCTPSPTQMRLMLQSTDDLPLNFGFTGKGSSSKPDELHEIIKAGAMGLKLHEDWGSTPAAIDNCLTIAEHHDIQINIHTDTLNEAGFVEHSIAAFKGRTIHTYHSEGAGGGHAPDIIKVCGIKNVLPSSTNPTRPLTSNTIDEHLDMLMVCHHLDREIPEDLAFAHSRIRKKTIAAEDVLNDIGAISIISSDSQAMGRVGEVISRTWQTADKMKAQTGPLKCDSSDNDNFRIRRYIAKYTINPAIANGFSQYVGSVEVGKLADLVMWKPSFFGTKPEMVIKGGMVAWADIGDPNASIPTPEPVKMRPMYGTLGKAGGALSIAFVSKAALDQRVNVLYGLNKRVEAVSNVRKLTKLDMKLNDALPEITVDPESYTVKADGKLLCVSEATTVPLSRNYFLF

SMILES	IC50 (jack bean urease [1]) [µM]	% inhibition (jack bean urease [1]) [%]	Ki (jack bean urease [2]) [µM]	V max(app) (jack bean urease [2]; [3]) [µM/min]	Mode of inhibition (jack bean urease [2])	K m(app) (jack bean urease [2]; [3]) [mM]	Ki (jack bean urease [2]; derived from Lineweaver–Burk and Dixon plots) [µM]
CCCCCCCC(=O)NC(=S)Nc1ccccc1Sc1ccccc1 [Compound 3j, N-(2′-(Phenylthio)phenylcarbamothioyl) octanamide]	39.1 ± 0.72	86.5					
CCCCCCCC(=O)NC(=S)Nc1ccc(C(F)(F)F)cc1 [Compound 3m, N-(4′-(Trifluoromethyl)phenylcarbamothioyl) octanamide]	31.16 ± 0.25	95.9					
CCCCCCCCCCCC(=O)NC(=S)Nc1ccc(Cl)c(Cl)c1 [Compound 3p, N-(3′,4′-Dichlorophenylcarbamothioyl) dodecanamide]	20.2 ± 0.48	85.2					
NC(N)=S [Thiourea, reference compound]		92.1			Competitive	2.18	18.2

Continued, in another order:

IC50 (jack bean urease [1]) [µM]	% inhibition (jack bean urease [1]) [%]	Ki (jack bean urease [2]) [µM]	V max(app) (jack bean urease [2]; [3]) [µM/min]	SMILES	Mode of inhibition (jack bean urease [2])	K m(app) (jack bean urease [2]; [3]) [mM]	Ki (jack bean urease [2]; derived from Lineweaver–Burk and Dixon plots) [µM]
60.1 ± 0.78	61.3			CCCCCCCC(=O)NC(=S)Nc1cc(C)ccc1C [Compound 3d, N-(2′,5′-Dimethylphenylcarbamothioyl) octanamide]			
40.2 ± 0.45	76.2			CCCCCCCC(=O)NC(=S)Nc1ccc(C)c(C)c1 [Compound 3f, N-(3′,4′-Dimethylphenylcarbamothioyl) octanamide]			
15.2 ± 0.58	96.3	9.28	15.63	CCCCCCCC(=O)NC(=S)Nc1c(C)cccc1C [Compound 3g, N-(2′,6′-Dimethylphenylcarbamothioyl) octanamide]	Competitive	6.09	
30.6 ± 0.75	88.1			CCCCCCCC(=O)NC(=S)Nc1cc([N+](=O)[O-])ccc1OC [Compound 3h, N-(2′-Methoxy-5′-nitrophenylcarbamothioyl) octanamide]			
22 ± 0.45	91.4			CCCCCCCC(=O)NC(=S)Nc1c(Cl)cccc1Cl [Compound 3i, N-(2′,6′-Dichlorophenylcarbamothioyl) octanamide]			
46.2 ± 0.78	85.8			CCCCCCCC(=O)NC(=S)Nc1cccc(C)c1C [Compound 3k, N-(2′,3′-Dimethylphenylcarbamothioyl) octanamide]			
